Measured values from publication PMC5942373 (Beilstein Journal of Organic Chemistry, 2018).
“Also recorded” adds a separate entry of the source. Read-outs that look alike come from different tables or passages of the source. Blank lines part the entries; values can stand above or below the compound they belong to. Positions of bridges follow the written chain, without caps; N, C: chain ends. Residues, ends and D or L forms follow the SMILES beside them. Chains are numbered I, II in the order given. *: point of attachment. Daunorubicin(13-NOCH2CO) = COc1cccc2c1C(=O)c1c(O)c3c(c(O)c1C2=O)C[C@@](O)(C(C)=NOCC(=O)*)C[C@@H]3O[C@H]1C[C@H](N)[C@H](O)[C@H](C)O1

Columns and labels:
[1] = tested on: CD13+ HT-1080 human fibrosarcoma cells; assay: In vitro cytostatic/cytotoxic effect, PrestoBlue viability; type: cell-based
Description: (§1) Similarly to our previous study the antitumor effects of conjugates were examined in vitro on CD13+ HT-1080 human fibrosarcoma and on CD13− HT-29 human colon adenocarcinoma cells. Both cell types are integrin receptor positive. The effect of the new drug conjugates was compared with the toxicity of free Dau and our lead compound Dau=Aoa-GFLGK(c[KNGRE]-GG)-NH2 (K). The bioconjugates enter cancer cells most likely by receptor-mediated endocytosis (at least at lower micromolar concentration) followed by the release of the active metabolite Dau=Aoa-Gly-OH by lysosomal degradation. In contrast, free Dau enters the cells in an unspecific manner which might explain the lower antitumor effect of conjugates in comparison with the free drug. In this experiment we measured the cytostatic effect (6 h treatment and further 66 h incubation after washing out the compounds) and the cytotoxic effect (72 h treatment). The results are summarized in (Table 3). […] It seems that the replacement of Lys by the hydrophilic amino acid Ser is not favorite. However, the incorporation of hydrophobic amino acids was well accepted. The conjugate with bulky side chain in this position (Leu) had higher IC50 values that might be explained by sterical hindrance. […] The Nle containing conjugate presented similar activity on HT-1080 and higher activity on HT-29 cells compared to the control conjugate. It is worth mentioning that Nle has a linear hydrocarbon side chain with the same length as Lys, the amino functional group missing. To further characterize the biological activity of the conjugates, their lysosomal degradation and cellular uptake were studied.
(§2) HT-1080 was maintained in DMEM while HT-29 cells in RPMI (Sigma-Aldrich), respectively, supplemented with 10% FBS, 5 mmol/L glutamine, and 50 units/mL penicillin and streptomycin (Life Technologies). As described in [17] cells were seeded in 5000 cells/well density in 100 μL medium followed by an overnight incubation. The next day 100 μL of serially diluted drugs were added to the cells. For the measurements of cytostatic effect, drug containing medium was gently removed from the plates after 6 h incubation, fresh medium was added to each wells, and the plates were further incubated for additional 66 h (72 h in total). In the case of cytotoxicity measurements, the drug containing medium was on the cells for the full period of the 72 h assay. At 72 h, supernatant was removed from the cells, and viability was assessed by the PrestoBlue® reagent (Life Technologies), which was diluted in PBS to reach the concentration given in the manufacturer’s instruction.

[2] = tested on: CD13- HT-29 human colon adenocarcinoma cells; assay: as above; type: cell-based
Description: as §1, §2

HT-29 cells = assay: Cellular uptake by flow cytometry; type: cell-based, human; settings: 10 μM, 6 h, 37 °C; for Cellular uptake in HT-29 compared with HT-1080 cells: flow cytometry, comparison of the two cell lines; for Cellular uptake by HT-29 cells: FBS containing medium, flow cytometry (Dau fluorescence)
Description: (§3) Daunomycin is fluorescent therefore the cellular uptake of Dau containing conjugates can be followed by flow cytometry (Figure 2). The new conjugates were taken up by HT-29 cells in a higher amount than by HT-1080 cells. […] The low cytostatic/cytotoxic effects of conjugate 5 can be explained by the results of cellular uptake study.
(§4) Figure 2 (A) HT1080 and (B) HT-29 cells. Uptake of conjugate 1 (light green); 2 (red); 3 (light blue); 4 (pink); 5 (green); K (yellow). Empty control with purple color.
(§5) Analogous to the description in [17], prior to the treatment, HT-1080 and HT-29 cells were incubated overnight in cell culture medium (see above) followed by seeding at a 250.000 cells/well density. Peptide–drug conjugates were dissolved in FBS containing cell culture medium and added to the cells at 10 μM final concentration. After 6 h incubation at 37 °C the supernatant was removed, cells were washed with PBS and trypsinised with 0.1% trypsin (Gibco® by Life Technologies) for 10 minutes. Trypsinization was terminated with FBS containing medium, then cells were washed and suspended in serum free medium. For live/dead detection we used Zombie Violet reagent (Biolegend, San Diego CA). Samples were detected and analyzed by using an Attitude® Acoustic Focusing Cytometer (ThermoFischer Scientific).

[3] = Chemostability (Asn deamidation) of cyclic NGR peptide-daunomycin conjugates in complete cell culture medium; type: physicochemical; settings: DMEM CM (10% FBS complete medium), 2% DMSO, 1 mg/mL, 37 °C, HPLC-MS, area under the curve
Description: The chemostability of cyclic NGR peptide–drug conjugates was studied under the treatment conditions used for the in vitro cytotoxicity experiments. Samples were taken at 0 min, 6 h and 72 h. The deamidation rate was evaluated by HPLC–MS. […] After 6 h, moderate rearrangement was observed which increased in time. However, 54–58% of the parent cyclic NGR conjugates were still intact after 72 h. […] Except deamidation no other decomposition could be observed during this study.
As described in [17] to check the chemical stability each of the drug conjugates were dissolved in DMSO (2% of the final volume), following the addition of 10% FBS (fetal bovine serum) containing complete cell culture medium (DMEM CM) up to the 1 mg/mL final concentration. Each conjugate was allowed to incubate at 37 °C. Samples were analyzed at experiment time of 0 h, 6 h and 72 h, respectively, and components were purified with Amicon Ultra Centrifugal Filters (cut off 10K Millipore). The membranes were washed with eluent A (HPLC), followed by 3 × 15 min centrifugation at 13000 rpm. The last step is the washing with eluent B (HPLC) 1 × 15 min, followed by lyophilization and concentration of the samples.

HT-1080 cells = assay: Cellular uptake by flow cytometry; type: cell-based, human; settings: 10 μM, 6 h, 37 °C, FBS containing medium; flow cytometry (Dau fluorescence)
Description: as §3, §4, §5

[4] = 10% FBS (fetal bovine serum) containing complete cell culture medium (DMEM CM); settings: 37 °C, up to 72 h
[5] = Rat liver lysosomal homogenate; settings: 37 °C, up to 72 h

Compound: COc1cccc2c1C(=O)c1c(O)c3c(c(O)c1C2=O)C[C@@](O)(C(C)=O)C[C@@H]3O[C@H]1C[C@H](N)[C@H](O)[C@H](C)O1 [Daunomycin]
IC50 ([1]; HT-1080, 72 h, read-out: HT-1080 (72 h) IC50): 500 ± 200 nM
IC50 ([1]; HT-1080, read-out: HT-1080 (6 h) IC50): 1400 ± 600 nM
IC50 ([2]; HT-29, 72 h, read-out: HT-29 (72 h) IC50): 100 ± 100 nM
IC50 ([2]; HT-29, read-out: HT-29 (6 h) IC50): 300 ± 200 nM

Compound: COc1cccc2c1C(=O)c1c(O)c3c(c(O)c1C2=O)C[C@@](O)(C(C)=NOCC(=O)NCC(=O)N[C@@H](Cc1ccccc1)C(=O)N[C@@H](CC(C)C)C(=O)NCC(=O)N[C@@H](CCCCNC(=O)CNC(=O)CNC(=O)[C@@H]1CCC(=O)N[C@@H](CC(C)C)C(=O)N[C@@H](CC(N)=O)C(=O)NCC(=O)N[C@@H](CCCNC(=N)N)C(=O)N1)C(N)=O)C[C@@H]3O[C@H]1C[C@H](N)[C@H](O)[C@H](C)O1 [compound 2, Dau=Aoa-GFLGK(c[CONH-LNGRE]-GG)-NH2]
Cellular uptake in HT-29 compared with HT-1080 cells (HT-29 cells): significantly higher accumulation in HT-29 than in HT-1080 cells

Compound: COc1cccc2c1C(=O)c1c(O)c3c(c(O)c1C2=O)C[C@@](O)(C(C)=NOCC(=O)NCC(=O)N[C@@H](Cc1ccccc1)C(=O)N[C@@H](CC(C)C)C(=O)NCC(=O)N[C@@H](CCCCNC(=O)CNC(=O)CNC(=O)[C@@H]1CCC(=O)N2CCC[C@H]2C(=O)N[C@@H](CC(N)=O)C(=O)NCC(=O)N[C@@H](CCCNC(=N)N)C(=O)N1)C(N)=O)C[C@@H]3O[C@H]1C[C@H](N)[C@H](O)[C@H](C)O1 [compound 4, Dau=Aoa-GFLGK(c[CONH-PNGRE]-GG)-NH2] (I: PNGREGG / II: {Daunorubicin(13-NOCH2CO)}-GFLGK-NH2; amide I:C-II:5; lactam I:N-I:5)
Ratio of Asn-/Asp-/isoAsp-derivatives: DGR ([3]; 6 h): 14%
Ratio of Asn-/Asp-/isoAsp-derivatives: isoDGR ([3]; 6 h): 13%
Ratio of Asn-/Asp-/isoAsp-derivatives: NGR ([3]; 6 h, % printed in b14 only): 73%
Ratio of Asn-/Asp-/isoAsp-derivatives: DGR ([3]; 72 h): 46%
Ratio of Asn-/Asp-/isoAsp-derivatives: NGR ([3]; 72 h): 19%
Ratio of Asn-/Asp-/isoAsp-derivatives: isoDGR ([3]; 72 h): 35%
Cellular uptake by HT-29 cells (HT-29 cells): highest uptake
Cellular uptake in HT-29 compared with HT-1080 cells (HT-29 cells): significantly higher accumulation in HT-29 than in HT-1080 cells
Cellular uptake by HT-1080 cells (HT-1080 cells): highest uptake

Compound: COc1cccc2c1C(=O)c1c(O)c3c(c(O)c1C2=O)C[C@@](O)(C(C)=NOCC(=O)NCC(=O)N[C@@H](Cc1ccccc1)C(=O)N[C@@H](CC(C)C)C(=O)NCC(=O)N[C@@H](CCCCNC(=O)CNC(=O)CNC(=O)[C@@H]1CCC(=O)N[C@@H](CO)C(=O)N[C@@H](CC(N)=O)C(=O)NCC(=O)N[C@@H](CCCNC(=N)N)C(=O)N1)C(N)=O)C[C@@H]3O[C@H]1C[C@H](N)[C@H](O)[C@H](C)O1 [compound 5, Dau=Aoa-GFLGK(c[CONH-SNGRE]-GG)-NH2]
Cellular uptake by HT-29 cells (HT-29 cells): slightly higher cellular uptake
Cellular uptake by HT-1080 cells (HT-1080 cells): did not enter

Compound: Dau=Aoa-GFLGK(c[CONH-LNGRE]-GG)-NH2
fragment found [4]: isoDGR, 6 h; also recorded: DGR, 72 h
cleaved bond [5]: Gly-Phe, major, 6 h

Now from value to compound:

fragment found [4]: isoDGR, 6 h; also recorded: DGR, 72 h
cleaved bond [5]: Gly-Phe, major, 6 h
Compound: Dau=Aoa-GFLGK(c[CONH-ANGRE]-GG)-NH2

not cleaved [4]: 100% NGR form at 72 h
Compound: Dau=Aoa-GFLGK(c[CONH-KNGRE]-GG)-NH2

fragment found [4]: isoDGR, 6 h; also recorded: DGR, 6 h
cleaved bond [5]: Gly-Phe, major, 6 h
Compound: Dau=Aoa-GFLGK(c[CONH-NleNGRE]-GG)-NH2

fragment found [4]: isoDGR, 6 h; also recorded: DGR, 6 h
cleaved bond [5]: Gly-Phe, major, 6 h
Compound: Dau=Aoa-GFLGK(c[CONH-PNGRE]-GG)-NH2

fragment found [4]: DGR, 72 h; also recorded: isoDGR, 6 h
cleaved bond [5]: Gly-Phe, major, 6 h
Compound: Dau=Aoa-GFLGK(c[CONH-SNGRE]-GG)-NH2
